pIC50: −log10 of the molar value. Like-named read-outs stand apart in the source and are kept apart here.
Legend:
[1] = biological target: Endothelial lipase (EL) (Homo sapiens (Human), UniProt Q9Y5X9); assay: EL assay: endothelial lipase activity with fluorescent substrate A10070 in DMPG vesicles; format: biochemical
In short: (§1)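 Substrate A10070 sits in sonicated DMPG vesicles at 0.11 mole fraction. Lipase and compound preincubated 30 min, 37° C, in HEPES pH 8.0 buffer with CaCl2.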

[2] = biological target: hepatic lipase (HL) (Homo sapiens (Human), UniProt P11150); assay: HL assay: hepatic lipase activity with fluorescent substrate A10070 in DMPG vesicles; format: biochemical
Chain of hepatic lipase (HL) (P11150 23-499, species assumed): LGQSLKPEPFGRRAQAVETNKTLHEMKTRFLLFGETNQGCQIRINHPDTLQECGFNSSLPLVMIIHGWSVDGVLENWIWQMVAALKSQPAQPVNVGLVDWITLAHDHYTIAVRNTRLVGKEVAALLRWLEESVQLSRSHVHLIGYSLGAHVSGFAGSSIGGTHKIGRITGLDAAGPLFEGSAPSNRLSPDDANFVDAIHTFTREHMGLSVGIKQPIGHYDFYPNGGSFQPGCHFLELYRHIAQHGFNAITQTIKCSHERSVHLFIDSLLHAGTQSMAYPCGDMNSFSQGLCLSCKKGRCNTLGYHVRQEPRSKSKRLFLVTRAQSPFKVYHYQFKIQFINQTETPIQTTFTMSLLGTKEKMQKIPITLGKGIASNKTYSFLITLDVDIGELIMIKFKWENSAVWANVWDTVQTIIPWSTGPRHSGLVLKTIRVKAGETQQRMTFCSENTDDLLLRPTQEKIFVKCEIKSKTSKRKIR
In short: as §1

[3] = EL from conditioned media of HT-1080 cells, 30 min incubation with compound at 37° C., A10070/DMPG vesicles
[4] = HL partially purified from conditioned media of COS cells, 30 min incubation with compound at 37° C., A10070/DMPG vesicles

Chain of Endothelial lipase (EL) (Q9Y5X9 21-500): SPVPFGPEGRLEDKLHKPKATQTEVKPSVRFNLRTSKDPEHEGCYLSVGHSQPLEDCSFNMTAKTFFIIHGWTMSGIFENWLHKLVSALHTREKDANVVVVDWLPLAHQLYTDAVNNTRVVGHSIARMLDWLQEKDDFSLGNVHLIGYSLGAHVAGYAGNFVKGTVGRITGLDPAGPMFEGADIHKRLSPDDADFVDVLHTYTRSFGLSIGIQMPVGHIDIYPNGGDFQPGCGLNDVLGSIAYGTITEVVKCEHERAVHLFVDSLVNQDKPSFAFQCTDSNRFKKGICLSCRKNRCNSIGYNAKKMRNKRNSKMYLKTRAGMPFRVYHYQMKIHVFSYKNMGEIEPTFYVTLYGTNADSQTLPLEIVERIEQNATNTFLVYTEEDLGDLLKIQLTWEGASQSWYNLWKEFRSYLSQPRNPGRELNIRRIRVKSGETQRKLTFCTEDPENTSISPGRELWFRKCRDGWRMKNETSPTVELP

Structure (SMILES) | pIC50 [1] | pIC50 [2] | pIC50 [1, 3] | pIC50 [2, 4]
CS(=O)(=O)C(C(=O)NCCS(N)(=O)=O)c1nc2ccc(-c3ccc(C(=O)N4CCC(F)(F)C4)cc3)cc2s1 (stereo not shown) [Example B169, 2-(6-(4-((3,3-difluoro-1-pyrrolidinyl)carbonyl)phen-yl)-1,3-benzothiazol-2-yl)-2-(methylsulfonyl)-N-(2-sulfamoylethyl)a-cetamide] | > 8.00 | 7.04 |  | 
NS(=O)(=O)CCNC(=O)C(c1nc2ccc(-c3ccc(C(=O)N4CCC(F)(F)C4)cc3)cc2s1)S(=O)(=O)CCC(F)(F)F (stereo not shown) [Example B170, 2-(6-(4-((3,3-difluoro-1-pyrrolidinyl)carbonyl)phen-yl)-1,3-benzothiazol-2-yl)-N-(2-sulfamoylethyl)-2-((3,3,3-trifluoropropyl)sul-fonyl)acetamide] | > 8.00 | 7.49 |  | 
CS(=O)(=O)C(C(=O)NCCS(N)(=O)=O)c1nc2ccc(-c3ccc(C(=O)N4CCC(F)(F)CC4)cc3)cc2s1 (stereo not shown) [Example B171, 2-(6-(4-((4,4-difluoro-1-piperidinyl)carbonyl)phen-yl)-1,3-benzothiazol-2-yl)-2-(methylsulfonyl)-N-(2-sulfamoylethyl)a-cetamide] | > 8.00 | 7.72 |  | 
COCCN(C)C(=O)c1ccc(-c2ccc3nc(C(C(=O)NCCS(N)(=O)=O)S(C)(=O)=O)sc3c2)cc1 (stereo not shown) [Example B172, N-(2-Methoxyethyl)-N-methyl-4-(2-(1-(methylsulfonyl)-2-oxo-2-((2-sulfamoylethyl)amino)ethyl)-1,3-benzothiazol-6-yl)benzamide] |  |  | > 8.00 | 7.11
CS(=O)(=O)C(C(=O)NCCS(N)(=O)=O)c1nc2ccc(-c3ccc(C(=O)O)cc3)cc2s1 (stereo not shown) [Example B173, 4-(2-(1-(Methylsulfonyl)-2-oxo-2-(2-sulfamoylethylamino)ethyl)benzo[d]thiazol-6-yl)benzoic acid] |  |  | > 8.00 | 6.56
CC1(O)CN(C(=O)c2ccc(-c3ccc4nc(C(C(=O)NCCS(N)(=O)=O)S(C)(=O)=O)sc4c3)cc2)C1 (stereo not shown) [Example B174, 2-(6-(4-(3-Hydroxy-3-methylazetidine-1-carbonyl)phenyl)benzo[d]thiazol-2-yl)-2-(methylsulfonyl)-N-(2-sulfamoylethyl)acetamide] |  |  | > 8.00 | 6.40
COC1CN(C(=O)c2ccc(-c3ccc4nc(C(C(=O)NCCS(N)(=O)=O)S(C)(=O)=O)sc4c3)cc2)C1 (stereo not shown) [Example B175, 2-(6-(4-((3-methoxy-1-azetidinyl)carbonyl)phen-yl)-1,3-benzothiazol-2-yl)-2-(methylsulfonyl)-N-(2-sulfamoylethyl)a-cetamide] | > 8.00 | 6.93 |  | 
CC1(O)CCN(C(=O)c2ccc(-c3ccc4nc(C(C(=O)NCCS(N)(=O)=O)S(C)(=O)=O)sc4c3)cc2)CC1 (stereo not shown) [Example B176, 2-(6-(4-((4-hydroxy-4-methyl-1-piperidinyl)car-bonyl)phenyl)-1,3-benzothiazol-2-yl)-2-(methylsulfonyl)-N-(2-sulfamoylethyl)acetamide] | > 8.00 | 7.04 |  | 
CS(=O)(=O)C(C(=O)NCCS(N)(=O)=O)c1nc2ccc(-c3ccc(C(=O)N4CCC(O)CC4)cc3)cc2s1 (stereo not shown) [Example B177, 2-(6-(4-((4-hydroxy-1-piperidinyl)carbonyl)phen-yl)-1,3-benzothiazol-2-yl)-2-(methylsulfonyl)-N-(2-sulfamoylethyl)a-cetamide] | > 8.00 | 6.31 |  | 
CS(=O)(=O)C(C(=O)NCCS(N)(=O)=O)c1nc2ccc(-c3ccc(C(=O)NC4COC4)cc3)cc2s1 (stereo not shown) [Example B178, 4-(2-(1-(methylsulfonyl)-2-oxo-2-((2-sulfamoylethyl)a-mino)ethyl)-1,3-benzothiazol-6-yl)-N-3-oxetanylbenzamide] | > 8.00 | 7.04 |  | 
COCCNC(=O)c1cccc(-c2ccc3nc(C(C(=O)NCCS(N)(=O)=O)S(=O)(=O)CCC(F)(F)F)sc3c2)c1 (stereo not shown) [Example B179, N-(2-Methoxyethyl)-3-(2-(2-oxo-2-((2-sulfamoyl-ethyl)amino)-1-((3,3,3-trifluoropropyl)sulfonyl)eth-yl)benzo[d]thiazol-6-yl)benzamide] | 7.62 | 6.77 |  | 
CS(=O)(=O)C(C(=O)NCCS(N)(=O)=O)c1nc2ccc(-c3ccc4c(c3)CC(=O)N4)cc2s1 (stereo not shown) [Example B180, 2-(Methylsulfonyl)-2-(6-(2-oxo-2,3-dihydro-1H-indol-5-yl)-1,3-benzothiazol-2-yl)-N-(2-sulfamoylethyl)acetamide] |  |  | > 8.00 | 6.77
CS(=O)(=O)C(C(=O)NCCS(N)(=O)=O)c1nc2ccc(-c3ccc4c(c3)C(=O)NC4)cc2s1 (stereo not shown) [Example B181, 2-(methylsulfonyl)-2-(6-(3-oxo-2,3-dihydro-1H-isoindol-5-yl)-1,3-benzothiazol-2-yl)-N-(2-sulfamoylethyl)acetamide] | > 8.00 | 6.84 |  | 
CS(=O)(=O)C(C(=O)NCCS(N)(=O)=O)c1nc2ccc(-c3ccc4c(c3)CNC4=O)cc2s1 (stereo not shown) [Example B182, 2-(methylsulfonyl)-2-(6-(1-oxo-2,3-dihydro-1H-isoindol-5-yl)-1,3-benzothiazol-2-yl)-N-(2-sulfamoylethyl)acetamide] | > 8.00 | 7.44 |  | 
CS(=O)(=O)C(C(=O)NCCS(N)(=O)=O)c1nc2ccc(-c3ccc4c(c3)NC(=O)C4)cc2s1 (stereo not shown) [Example B183, 2-(methylsulfonyl)-2-(6-(2-oxo-2,3-dihydro-1H-indol-6-yl)-1,3-benzothiazol-2-yl)-N-(2-sulfamoylethyl)a-cetamide] | > 8.00 | 6.86 |  | 
COc1ncccc1-c1ccc2nc(C(C(=O)NCCS(N)(=O)=O)S(C)(=O)=O)sc2c1 (stereo not shown) [Example B184, 2-(6-(2-methoxy-3-pyridinyl)-1,3-benzothiazol-2-yl)-2-(methylsulfonyl)-N-(2-sulfamoylethyl)acetamide] | > 8.00 | 7.19 |  | 
COc1cccc(-c2ccc3nc(C(C(=O)NCCS(N)(=O)=O)S(C)(=O)=O)sc3c2)n1 (stereo not shown) [Example B185, 2-(6-(6-methoxy-2-pyridinyl)-1,3-benzothiazol-2-yl)-2-(methylsulfonyl)-N-(2-sulfamoylethyl)acetamide] | > 8.00 | > 8.00 |  | 
CC(C)(O)Cn1cc(-c2ccc3nc(C(C(=O)NCCS(N)(=O)=O)S(C)(=O)=O)sc3c2)ccc1=O (stereo not shown) [Example B186, 2-(6-(1-(2-hydroxy-2-methylpropyl)-6-oxo-1,6-dihydro-3-pyridinyl)-1,3-benzothiazol-2-yl)-2-(methylsulfonyl)-N-(2-sulfamoylethyl)acetamide] | 8.96 | 5.00 |  | 
CS(=O)(=O)C(C(=O)NCCS(N)(=O)=O)c1nc2ccc(-c3ccc(O)nc3)cc2s1 (stereo not shown) [Example B187, 2-(Methylsulfonyl)-2-(6-(6-oxo-1,6-dihydro-3-pyridinyl)-1,3-benzothiazol-2-yl)-N-(2-sulfamoylethyl)acetamide] |  |  | 7.80 | 6.81
CS(=O)(=O)C(C(=O)NCCS(N)(=O)=O)c1nc2ccc(-c3cccc(O)n3)cc2s1 (stereo not shown) [Example B188, 2-(methylsulfonyl)-2-(6-(6-oxo-1,6-dihydro-2-pyridinyl)-1,3-benzothiazol-2-yl)-N-(2-sulfamoylethyl)acetamide] | > 8.00 | 6.40 |  | 
